The NIST ThermoML archive (doi:10.1016/j.jct.2016.08.008)
Numbers after ± are expanded uncertainties.

Experiment: activity coefficient (dimensionless); of the first substance listed, at infinite dilution; xn = mol fraction of the nth substance listed
Conditions: 101.33 kPa, Liquid, Chromatography, x1 = 0

Row | SMILES | activity coefficient (318.15 K) | activity coefficient (328.15 K) | activity coefficient (338.15 K) | activity coefficient (348.15 K) | activity coefficient (358.15 K) | activity coefficient (368.15 K)
1 | C=CCCCCCCCC [1-decene] + CCCCCCCCCCCCn1cc[n+](C)c1.O=S(=O)([N-]S(=O)(=O)C(F)(F)F)C(F)(F)F | 4.18 ± 0.28 | 4.27 ± 0.29 | 4.36 ± 0.3 | 4.44 ± 0.3 | 4.52 ± 0.31 | 4.6 ± 0.31
2 | C#CCCCCCC [1-octyne] + CCCCCCCCCCCCn1cc[n+](C)c1.O=S(=O)([N-]S(=O)(=O)C(F)(F)F)C(F)(F)F | 1.74 ± 0.12 | 1.8 ± 0.12 | 1.87 ± 0.13 | 1.93 ± 0.13 | 1.99 ± 0.14 | 2.06 ± 0.14
3 | C#CCCCCC [1-heptyne] + CCCCCCCCCCCCn1cc[n+](C)c1.O=S(=O)([N-]S(=O)(=O)C(F)(F)F)C(F)(F)F | 1.47 ± 0.1 | 1.53 ± 0.1 | 1.59 ± 0.11 | 1.65 ± 0.11 | 1.7 ± 0.11 | 1.76 ± 0.12
4 | C#CCCCC [1-hexyne] + CCCCCCCCCCCCn1cc[n+](C)c1.O=S(=O)([N-]S(=O)(=O)C(F)(F)F)C(F)(F)F | 1.25 ± 0.08 | 1.3 ± 0.08 | 1.35 ± 0.09 | 1.4 ± 0.09 | 1.45 ± 0.1 | 1.49 ± 0.1
5 | C=CCCCCC [1-heptene] + CCCCCCCCCCCCn1cc[n+](C)c1.O=S(=O)([N-]S(=O)(=O)C(F)(F)F)C(F)(F)F | 2.56 ± 0.17 | 2.62 ± 0.18 | 2.68 ± 0.18 | 2.74 ± 0.19 | 2.8 ± 0.19 | 2.85 ± 0.19
6 | CCCC(=O)OC [methyl butanoate] + CCCCCCCCCCCCn1cc[n+](C)c1.O=S(=O)([N-]S(=O)(=O)C(F)(F)F)C(F)(F)F | 0.613 ± 0.043 | 0.643 ± 0.044 | 0.674 ± 0.046 | 0.704 ± 0.047 | 0.733 ± 0.049 | 0.762 ± 0.05
7 | C=Cc1ccccc1 [styrene] + CCCCCCCCCCCCn1cc[n+](C)c1.O=S(=O)([N-]S(=O)(=O)C(F)(F)F)C(F)(F)F | 0.632 ± 0.044 | 0.666 ± 0.045 | 0.702 ± 0.047 | 0.736 ± 0.049 | 0.771 ± 0.05 | 0.804 ± 0.052
8 | CCCCCC [hexane] + CCCCCCCCCCCCn1cc[n+](C)c1.O=S(=O)([N-]S(=O)(=O)C(F)(F)F)C(F)(F)F | 2.96 ± 0.2 | 3.02 ± 0.21 | 3.09 ± 0.21 | 3.14 ± 0.21 | 3.2 ± 0.22 | 3.26 ± 0.22
9 | C1=CCCCC1 [cyclohexene] + CCCCCCCCCCCCn1cc[n+](C)c1.O=S(=O)([N-]S(=O)(=O)C(F)(F)F)C(F)(F)F | 1.56 ± 0.1 | 1.59 ± 0.11 | 1.62 ± 0.11 | 1.65 ± 0.11 | 1.68 ± 0.11 | 1.71 ± 0.11
10 | CCCCC [pentane] + CCCCCCCCCCCCn1cc[n+](C)c1.O=S(=O)([N-]S(=O)(=O)C(F)(F)F)C(F)(F)F | 2.55 ± 0.17 | 2.6 ± 0.18 | 2.66 ± 0.18 | 2.71 ± 0.18 | 2.76 ± 0.19 | 2.81 ± 0.19
11 | CCCOCCC [dipropyl ether] + CCCCCCCCCCCCn1cc[n+](C)c1.O=S(=O)([N-]S(=O)(=O)C(F)(F)F)C(F)(F)F | 1.67 ± 0.11 | 1.73 ± 0.12 | 1.79 ± 0.12 | 1.84 ± 0.12 | 1.89 ± 0.13 | 1.94 ± 0.13
12 | CCC(=O)OC [methyl propanoate] + CCCCCCCCCCCCn1cc[n+](C)c1.O=S(=O)([N-]S(=O)(=O)C(F)(F)F)C(F)(F)F | 0.531 ± 0.039 | 0.557 ± 0.04 | 0.583 ± 0.041 | 0.608 ± 0.043 | 0.634 ± 0.044 | 0.659 ± 0.045
13 | CCc1ccccc1 [ethylbenzene] + CCCCCCCCCCCCn1cc[n+](C)c1.O=S(=O)([N-]S(=O)(=O)C(F)(F)F)C(F)(F)F | 0.911 ± 0.058 | 0.951 ± 0.06 | 0.992 ± 0.062 | 1.03 ± 0.06 | 1.07 ± 0.07 | 1.11 ± 0.07
14 | CCOC(C)(C)C [2-ethoxy-2-methylpropane] + CCCCCCCCCCCCn1cc[n+](C)c1.O=S(=O)([N-]S(=O)(=O)C(F)(F)F)C(F)(F)F | 1.55 ± 0.1 | 1.62 ± 0.11 | 1.69 ± 0.11 | 1.75 ± 0.12 | 1.82 ± 0.12 | 1.88 ± 0.13
15 | C1CCOC1 [tetrahydrofuran] + CCCCCCCCCCCCn1cc[n+](C)c1.O=S(=O)([N-]S(=O)(=O)C(F)(F)F)C(F)(F)F | 0.394 ± 0.034 | 0.417 ± 0.035 | 0.44 ± 0.04 | 0.462 ± 0.036 | 0.484 ± 0.037 | 0.508 ± 0.038
16 | CCCO [propan-1-ol] + CCCCCCCCCCCCn1cc[n+](C)c1.O=S(=O)([N-]S(=O)(=O)C(F)(F)F)C(F)(F)F | 1.45 ± 0.1 | 1.36 ± 0.09 | 1.29 ± 0.08 | 1.22 ± 0.08 | 1.16 ± 0.07 | 1.11 ± 0.07
17 | c1ccncc1 [pyridine] + CCCCCCCCCCCCn1cc[n+](C)c1.O=S(=O)([N-]S(=O)(=O)C(F)(F)F)C(F)(F)F | 0.387 ± 0.034 | 0.404 ± 0.034 | 0.42 ± 0.04 | 0.435 ± 0.035 | 0.451 ± 0.036 | 0.466 ± 0.036
18 | CC#N [acetonitrile] + CCCCCCCCCCCCn1cc[n+](C)c1.O=S(=O)([N-]S(=O)(=O)C(F)(F)F)C(F)(F)F | 0.508 ± 0.038 | 0.515 ± 0.038 | 0.524 ± 0.039 | 0.531 ± 0.039 | 0.539 ± 0.039 | 0.545 ± 0.04
19 | CCCc1ccccc1 [propylbenzene] + CCCCCCCCCCCCn1cc[n+](C)c1.O=S(=O)([N-]S(=O)(=O)C(F)(F)F)C(F)(F)F | 1.1 ± 0.07 | 1.15 ± 0.07 | 1.21 ± 0.08 | 1.25 ± 0.08 | 1.3 ± 0.08 | 1.35 ± 0.09
20 | C1CCCC1 [cyclopentane] + CCCCCCCCCCCCn1cc[n+](C)c1.O=S(=O)([N-]S(=O)(=O)C(F)(F)F)C(F)(F)F | 1.75 ± 0.12 | 1.77 ± 0.12 | 1.8 ± 0.12 | 1.82 ± 0.12 | 1.84 ± 0.12 | 1.86 ± 0.13
21 | CCC(=O)CC [pentan-3-one] + CCCCCCCCCCCCn1cc[n+](C)c1.O=S(=O)([N-]S(=O)(=O)C(F)(F)F)C(F)(F)F | 0.418 ± 0.035 | 0.444 ± 0.036 | 0.47 ± 0.037 | 0.496 ± 0.038 | 0.521 ± 0.039 | 0.546 ± 0.04
22 | C1CCCCCCC1 [cyclooctane] + CCCCCCCCCCCCn1cc[n+](C)c1.O=S(=O)([N-]S(=O)(=O)C(F)(F)F)C(F)(F)F | 2.8 ± 0.19 | 2.82 ± 0.19 | 2.83 ± 0.19 | 2.84 ± 0.19 | 2.85 ± 0.19 | 2.86 ± 0.19
